Assay results from patent USRE50799E1, “JAK1 selective inhibitors and uses thereof” (Hangzhou HighlightII Pharmaceutical Co., Ltd, priority 2016, dated 2026).

Experiments:
Jak1 = target: T1, Jak1 (Homo sapiens, UniProt P23458); assay: Jak1 biochemical assay (33P-ATP filter-binding, Reaction Biology Corp); details: for IC50: biochemical kinase assay, 33P-ATP, filter-binding, read-out: Jak1 (range of IC50); for Jak1 inhibition, statement in words: biochemical assays, Jak1 versus Jak2
T1 construct: Reaction Biology Corp (performed the assay)
Procedure: (§1) Example B1: Jak1, 2, 3, Tyk2 Biochemical Assays
(§2) Assays were performed by Reaction Biology Corp, Malvern, Pa. The procedure is briefly described below.
(§3) Base Reaction buffer; 20 mM Hepes (pH 7.5), 10 mM MgCl2, 1 mM EGTA, 0.02% Brij35, 0.02 mg/ml BSA, 0.1 mM Na3VO4, 2 mM DTT, 1% DMSO. Required cofactors are added individually to each kinase reaction
(§4) 1. Prepare indicated substrate in freshly prepared Base Reaction Buffer
(§5) 2. Deliver any required cofactors to the substrate solution above
(§6) 3. Deliver indicated kinase into the substrate solution and gently mix
(§7) 4. Deliver compounds in DMSO into the kinase reaction mixture by Acoustic technology (Echo550; nanoliter range), incubate for 20 minutes at room temperature
(§8) 5. Deliver ^33P-ATP (specific activity 10 μCi/μl) into the reaction mixture to initiate the reaction.
(§9) 6. Incubate kinase reaction for 2 hours at room temperature
(§10) 7. Reactions are spotted onto P81 ion exchange paper
(§11) 8. Detect kinase activity by filter-binding method.

Jak2 = target: T2, Jak2 (Homo sapiens, UniProt O60674); assay: Jak2 biochemical assay (33P-ATP filter-binding, Reaction Biology Corp); details: biochemical kinase assay, read-out: Jak2 (range of IC50)
T2 construct: Reaction Biology Corp (performed the assay)
Procedure: as §1, §2, §3, §4, §5, §6, §7, §8, §9, §10, §11

[1] = test system: IL-6 induced STAT3 phosphorylation; assay: Human whole blood p-STAT3 assay, IL-6 stimulation; assay type: cell-based; details: for IC50: 0.25 h, IL-6 100 ng/ml 15 min, pSTAT3 ELISA, read-out: IL-6 (range of IC50, induced STAT3 phosphorylation); for Inhibition of IL-6 induced STAT3 phosphorylation, statement in words: versus TPO induced
Procedure: (§12) Example B2: Human Whole Blood p-STAT3 Assay
(§13) 1. Whole blood samples from human donors
2. IL-6 (R&D systems; Cat #206-IL)
(§14) 5. ELISA kit for pSTAT3 (Invitrogen; Cat # KH00481)
(§15) 1. 150 μl heparinized blood sample/tube.
(§16) 2. Compounds at various concentrations is added to the blood, incubate for 10 min at RT (10 doses, 2 replicates for each compound).
(§17) 3. Add IL-6 (final concentration: 100 ng/ml) or TPO (final conc: 50 ng/ml) to the blood for 15 min.
(§18) 4. After the stimulation, add 0.6 mL RBC lysis buffer (Qiagen 79217) and mix and rock for 1-2 minutes at room temperature before centrifugation to remove lyzed RBCs. This step may be repeated once if RBCs are not lyzed completely. Harvest the WBCs.
(§19) 5. Add 200 μl cell lysis buffer, ice 30 min.
(§20) 7. Transfer the supernatant to a new tube as cell lysate.
(§21) 8. Run ELISA procedure according to the product instruction of ELIA kit.

[2] = test system: TPO induced STAT3 phosphorylation; assay: Human whole blood p-STAT3 assay, TPO stimulation; assay type: cell-based; details: for IC50: 0.25 h, TPO 50 ng/ml 15 min, pSTAT3 ELISA, read-out: TPO (range of IC50, induced STAT3 phosphorylation)
Procedure: as §12, §13
3. Thrombopoietin (TPO; R&D systems; Cat #288-TP)
as §14, §15, §16, §17, §18, §19, §20, §21

T1 sequence (P23458 whole entry): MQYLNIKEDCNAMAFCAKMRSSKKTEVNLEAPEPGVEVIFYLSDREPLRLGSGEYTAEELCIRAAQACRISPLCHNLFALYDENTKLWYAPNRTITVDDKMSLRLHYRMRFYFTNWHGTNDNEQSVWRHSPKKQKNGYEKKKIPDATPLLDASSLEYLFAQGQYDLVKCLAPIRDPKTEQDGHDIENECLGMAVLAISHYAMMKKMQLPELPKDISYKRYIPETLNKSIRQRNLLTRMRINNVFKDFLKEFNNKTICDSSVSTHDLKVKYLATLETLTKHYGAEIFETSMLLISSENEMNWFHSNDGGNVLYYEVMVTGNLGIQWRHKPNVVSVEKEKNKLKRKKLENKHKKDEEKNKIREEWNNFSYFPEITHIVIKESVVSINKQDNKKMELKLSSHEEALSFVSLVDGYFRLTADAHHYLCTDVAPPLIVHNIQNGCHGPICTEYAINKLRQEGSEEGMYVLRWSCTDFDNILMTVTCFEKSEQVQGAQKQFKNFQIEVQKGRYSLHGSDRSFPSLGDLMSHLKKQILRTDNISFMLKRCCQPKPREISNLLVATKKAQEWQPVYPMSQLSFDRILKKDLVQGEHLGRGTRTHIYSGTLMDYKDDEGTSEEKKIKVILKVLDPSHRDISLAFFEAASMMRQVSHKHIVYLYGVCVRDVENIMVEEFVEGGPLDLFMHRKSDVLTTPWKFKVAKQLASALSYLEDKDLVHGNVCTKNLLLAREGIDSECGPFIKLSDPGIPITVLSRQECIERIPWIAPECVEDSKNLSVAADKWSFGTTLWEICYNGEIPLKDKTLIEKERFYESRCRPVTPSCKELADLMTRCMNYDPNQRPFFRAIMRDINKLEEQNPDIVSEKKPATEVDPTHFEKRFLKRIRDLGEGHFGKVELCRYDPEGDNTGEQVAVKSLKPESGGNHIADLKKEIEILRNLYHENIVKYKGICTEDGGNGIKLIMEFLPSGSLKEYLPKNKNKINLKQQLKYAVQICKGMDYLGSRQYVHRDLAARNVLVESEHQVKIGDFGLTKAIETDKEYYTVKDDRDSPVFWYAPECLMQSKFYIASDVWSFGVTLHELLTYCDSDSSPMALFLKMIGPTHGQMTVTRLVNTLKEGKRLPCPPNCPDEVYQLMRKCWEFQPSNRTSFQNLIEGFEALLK
T2 sequence (O60674 whole entry): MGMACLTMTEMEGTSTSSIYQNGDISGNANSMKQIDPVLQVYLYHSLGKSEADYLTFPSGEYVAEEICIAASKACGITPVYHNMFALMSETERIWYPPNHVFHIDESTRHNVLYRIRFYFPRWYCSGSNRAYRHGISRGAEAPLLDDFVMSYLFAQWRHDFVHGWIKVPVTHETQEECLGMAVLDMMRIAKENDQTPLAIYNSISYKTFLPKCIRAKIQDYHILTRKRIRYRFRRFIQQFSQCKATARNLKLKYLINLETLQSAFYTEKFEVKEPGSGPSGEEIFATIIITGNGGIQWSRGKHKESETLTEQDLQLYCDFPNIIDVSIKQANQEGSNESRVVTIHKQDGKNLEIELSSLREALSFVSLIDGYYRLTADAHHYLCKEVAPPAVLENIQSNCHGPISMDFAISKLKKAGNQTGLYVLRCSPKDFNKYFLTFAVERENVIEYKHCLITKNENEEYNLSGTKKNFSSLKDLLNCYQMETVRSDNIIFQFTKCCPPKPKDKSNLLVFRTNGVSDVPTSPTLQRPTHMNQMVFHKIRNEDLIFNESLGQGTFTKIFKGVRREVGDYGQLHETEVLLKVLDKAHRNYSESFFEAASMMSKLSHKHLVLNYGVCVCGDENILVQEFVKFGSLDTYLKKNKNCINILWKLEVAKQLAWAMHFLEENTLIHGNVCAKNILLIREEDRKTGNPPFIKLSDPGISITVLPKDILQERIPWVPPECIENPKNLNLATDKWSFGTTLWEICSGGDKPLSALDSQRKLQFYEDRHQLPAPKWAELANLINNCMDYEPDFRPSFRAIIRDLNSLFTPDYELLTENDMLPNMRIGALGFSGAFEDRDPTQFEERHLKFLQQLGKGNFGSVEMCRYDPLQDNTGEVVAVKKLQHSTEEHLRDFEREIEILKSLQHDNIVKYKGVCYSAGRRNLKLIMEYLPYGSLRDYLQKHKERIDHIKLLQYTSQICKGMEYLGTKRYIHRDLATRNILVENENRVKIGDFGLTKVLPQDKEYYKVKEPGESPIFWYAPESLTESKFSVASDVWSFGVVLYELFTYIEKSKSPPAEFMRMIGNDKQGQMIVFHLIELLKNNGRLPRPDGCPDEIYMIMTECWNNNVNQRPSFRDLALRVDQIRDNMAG

Row | Structure (SMILES) | IC50 (Jak1) [nM] | Jak1 inhibition, statement in words (Jak1) | IC50 (Jak2) [nM] | IC50 [1] [µM] | IC50 [2] [µM] | Inhibition of IL-6 induced STAT3 phosphorylation, statement in words [1] | Activity in the TPO induced STAT3 phosphorylation assay, statement in words [2]
1 | C[C@@H](O)c1nc2cnc3ccoc3c2n1[C@H]1CC[C@H](C#N)CC1 [Example 1, trans-4-[2-[(R)-1-Hydroxyethyl]-1H-furo [3,2-b]imidazo [4,5-d]pyridin-1-yl] cyclohexanecarbonitrile] | 100 to 1000 |  |  |  |  |  | 
2 | N#C[C@H]1CC[C@H](n2c(CO)nc3cnc4ccoc4c32)CC1 [Example 2, trans-4-[2-(Hydroxymethyl)furo[3,2-b]imidazo[4,5-d]pyridin-1-yl]cyclohexanecarbonitrile] | 100 to 1000 |  |  |  |  |  | 
3 | C[C@@H](O)c1nc2cnc3ccoc3c2n1[C@H]1CC[C@H](CC#N)CC1 [Example 3, 2-[trans-4-[2-[(R)-1-Hydroxyethyl]furo[3,2-b]imidazo[4,5-d]pyridin-1-yl]cyclohexyl] acetonitrile] | < 10 | potent and selective Jak1 inhibitors | 100 to 1000 | < 5 | > 100 | selective inhibition of IL-6 induced STAT3 phosphorylation, but not TPO induced STAT3 phosphorylation | 
4 | CCc1nc2cnc3ccoc3c2n1[C@H]1CC[C@H](CC#N)OC1 [Example 9, 2-[(2R,5S)-5-[2-Ethylfuro[3,2-b]imidazo[4,5-d]pyridin-1-yl]tetrahydropyran-2-yl] acetonitrile] | < 10 | potent and selective Jak1 inhibitors | 100 to 1000 |  |  |  | 
5 | Cc1nc2cnc3ccoc3c2n1[C@H]1CC[C@H](CC#N)OC1 [Example 11, 2-[(2R,5S)-5-[2-Methylfuro [3,2-b]imidazo [4,5-d]pyridin-1-yl]tetrahydropyran-2-yl] acetonitrile] | < 10 |  | 10 to 100 | < 5 | 20 to 100 |  | some activity

The next lines start with results.

Row | IC50 (Jak1) [nM] | Jak1 inhibition, statement in words (Jak1) | IC50 (Jak2) [nM] | IC50 [1] [µM] | IC50 [2] [µM] | Structure (SMILES) | Inhibition of IL-6 induced STAT3 phosphorylation, statement in words [1] | Activity in the TPO induced STAT3 phosphorylation assay, statement in words [2]
6 | < 10 | potent and selective Jak1 inhibitors | 100 to 1000 | < 5 | > 100 | C[C@@H](O)c1nc2cnc3ccoc3c2n1[C@H]1CC[C@H](CC#N)OC1 [Example 4, 2-[(2R,5S)-5-[2-[(R)-1-Hydroxyethyl]furo[3,2-b]imidazo[4,5-d]pyridin-1-yl]tetrahydropyran-2-yl] acetonitrile] | selective inhibition of IL-6 induced STAT3 phosphorylation, but not TPO induced STAT3 phosphorylation | 
7 | > 1000 |  | > 1000 |  |  | C[C@@H](O)c1nc2cnc3ccoc3c2n1C1CCN(C(=O)NCC(F)(F)F)C1 (stereo partly drawn) [Example 5, 3-[2-[(R)-1-Hydroxyethyl]-1H-furo[3,2-b]imidazo[4,5-d]pyridin-1-yl]-N-(2,2,2-trifluoroethyl)pyrrolidine-1-carboxamide] |  | 
8 | > 1000 |  | > 1000 |  |  | C[C@@H](O)c1nc2cnc3ccoc3c2n1C1CCN(C(=O)NCC(F)(F)F)CC1 [Example 6, (R)-4-[2-(1-Hydroxyethyl)-1H-furo[3,2-b]imidazo[4,5-d]pyridin-1-yl]-N-(2,2,2-trifluoroethyl)piperidine-1-carboxamide] |  | 
9 | < 10 | potent and selective Jak1 inhibitors | 100 to 1000 | < 5 | > 100 | N#CC[C@H]1CC[C@H](n2c(CO)nc3cnc4ccoc4c32)CO1 [Example 7, 2-[(2R,5S)-5-[2-(Hydroxymethyl)furo[3,2-b]imidazo[4,5-d]pyridin-1-yl]tetrahydropyran-2-yl] acetonitrile] | selective inhibition of IL-6 induced STAT3 phosphorylation, but not TPO induced STAT3 phosphorylation | 
10 | 100 to 1000 |  | > 1000 |  |  | N#CC[C@@H]1CC[C@H](n2c(CO)nc3cnc4ccoc4c32)CO1 [Example 8, 2-[(2S,5S)-5-[2-(Hydroxymethyl)furo[3,2-b]imidazo[4,5-d]pyridin-1-yl]tetrahydropyran-2-yl] acetonitrile] |  | 
